Assay results published in publication PMC6537893 (Biochemistry, 2019).

Target: T1, GoxA (Pseudoalteromonas luteoviolacea, UniProt A0A161XU12)
T1 sequence (A0A161XU12 1-816): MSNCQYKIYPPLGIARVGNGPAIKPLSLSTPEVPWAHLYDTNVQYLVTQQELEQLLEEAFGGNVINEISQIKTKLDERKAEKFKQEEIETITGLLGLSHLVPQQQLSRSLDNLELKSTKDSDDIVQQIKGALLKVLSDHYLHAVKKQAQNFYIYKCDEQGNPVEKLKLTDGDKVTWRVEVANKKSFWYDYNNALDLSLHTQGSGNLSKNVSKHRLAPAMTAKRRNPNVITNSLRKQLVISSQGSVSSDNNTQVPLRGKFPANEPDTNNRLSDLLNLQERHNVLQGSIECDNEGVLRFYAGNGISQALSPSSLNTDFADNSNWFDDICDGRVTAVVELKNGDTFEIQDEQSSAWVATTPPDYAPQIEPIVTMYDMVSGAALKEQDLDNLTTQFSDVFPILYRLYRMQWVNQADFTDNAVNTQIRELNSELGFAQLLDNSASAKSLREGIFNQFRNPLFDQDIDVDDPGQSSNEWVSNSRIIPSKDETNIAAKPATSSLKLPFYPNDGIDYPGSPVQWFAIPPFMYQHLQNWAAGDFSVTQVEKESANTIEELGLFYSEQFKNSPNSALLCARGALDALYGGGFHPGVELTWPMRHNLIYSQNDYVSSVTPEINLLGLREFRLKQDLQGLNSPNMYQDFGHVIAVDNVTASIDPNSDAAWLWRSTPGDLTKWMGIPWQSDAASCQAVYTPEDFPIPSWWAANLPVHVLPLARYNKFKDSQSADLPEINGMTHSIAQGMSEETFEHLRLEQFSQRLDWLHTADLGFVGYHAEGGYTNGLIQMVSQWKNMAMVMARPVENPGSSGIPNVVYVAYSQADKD
Assay: anaerobic absorbance titration at […] nm, fit to allosteric binding equation

- Kd: 103 ± 3 µM
SMILES: NCC(=O)O [glycine]
